Measurements reported in US20110105472A1, “Diaminopyrimidines as crop protection agents” (Bayer CropScience AG, priority 2008, published 2011).
Marks after values point to notes of the source that are not given here.

Tests used:
[1] = test system: Capsella bursa-pastoris (shepherd's purse); test: Herbicidal post-emergence action (PO), CAPBP; type: in vivo; settings: dose 1000 g/ha, rated visually after about 2 weeks
Experimental: (§1) 2. Herbicidal Post-Emergence Action (═PO)
(§2) Seeds of monocotyledonous and dicotyledonous harmful plants are placed in sandy loam, covered with soil and cultivated in a greenhouse under good growth conditions. About 2 weeks after sowing, the test plants are treated at the one-leaf stage. To this end, the compounds according to the invention, formulated as emulsion concentrates (EC), as an aqueous emulsion with a water application rate of 800 l/ha (converted), are sprayed onto the green parts of the plants. After the test plants have been kept in the greenhouse under optimum growth conditions for about 2 weeks, the effect of the preparations is rated visually in comparison to untreated controls (herbicidal effect in percent (%): 100% effect=the plants have died, 0% effect=like control plants). CAPBP=Capsella bursa-pastoris (shepherd's purse), STEME=Stellaria media (common chickweed), ABUTH=Abutilon theophrasti (velvetleaf), AMARE=Amaranthus retroflexus (redroot pigweed)

[2] = logP by LC-MS, method [b], acidic range pH 2.7; type: physicochemical; settings: pH 2.7
[3] = test system: Stellaria media (common chickweed); test: Herbicidal post-emergence action (PO), STEME; type: in vivo; settings: dose 1000 g/ha, rated visually after about 2 weeks
Experimental: as §1, §2

[4] = test system: Abutilon theophrasti (velvetleaf); test: Herbicidal post-emergence action (PO), ABUTH; type: in vivo; settings: dose 1000 g/ha, rated visually after about 2 weeks
Experimental: as §1, §2

[5] = test system: Amaranthus retroflexus (redroot pigweed); test: Herbicidal post-emergence action (PO), AMARE; type: in vivo; settings: dose 1000 g/ha, rated visually after about 2 weeks
Experimental: as §1, §2

[6] = logP by HPLC on reversed-phase columns (C 18), method [a], acidic range pH 2.3; type: physicochemical; settings: pH 2.3
physchem = type: physicochemical; settings: pH 7.8
[7] = test system: Capsella bursa-pastoris (shepherd's purse); test: Herbicidal pre-emergence action (PE), CAPBP; type: in vivo; settings: dose 1000 g/ha, visual assessment after 2 weeks
Excerpt: (§3) 1. Herbicidal Pre-Emergence Action (═Pe)
(§4) Seeds of monocotyledonous and dicotyledonous harmful plants are placed in sandy loam and covered with soil. The compounds according to the invention, formulated as emulsion concentrates (EC), are then, as an aqueous emulsion with a water application rate of 800 l/ha (converted), applied to the surface of the covering soil.
(§5) After the treatment, the pots are placed in a greenhouse and kept under good growth conditions for the test plants. The visual assessment of the damage on the test plants is carried out after a trial period of 2 weeks by comparison with untreated controls (herbicidal effect in percent (%): 100% effect=the plants have died, 0% effect=like control plants). CAPBP=Capsella bursa-pastoris (shepherd's purse), STEME=Stellaria media (common chickweed)

[8] = test system: Stellaria media (common chickweed); test: Herbicidal pre-emergence action (PE), STEME; type: in vivo; settings: dose 1000 g/ha, visual assessment after 2 weeks
Excerpt: as §3, §4, §5

Meloidogyne incognita = test: Meloidogyne test (spray treatment); type: in vivo; settings: concentration 20 ppm; lettuce roots
Experimental: Containers are filled with sand, active compound solution, Meloidogyne incognita egg/larvae suspension and lettuce seeds. The lettuce seeds germinate and the plants develop. On the roots, galls are formed. After the desired period of time, the nematicidal activity is determined by the formation of galls in %. 100% means that no galls were found; 0% means that the number of galls on the treated plants corresponds to that of the untreated control.

[9] = test system: Spodoptera frugiperda larvae; test: Spodoptera frugiperda test (SPDFR spray application); type: in vivo; settings: application rate 500 g/ha; maize plants
Experimental: Spodoptera frugiperda Test (SPDFR Spray Application)
Solvents: 78.0 parts by weight of acetone • • 1.5 parts by weight of dimethylformamide Emulsifier: 0.6 part by weight of alkylaryl polyglycol ether
Maize plants (Zea mays) are watered with an active compound preparation of the desired concentration and infected with Spodoptera frugiperda larvae.
After the desired period of time, the kill in % is determined. 100% means that all larvae have been killed; 0% means that none of the larvae have been killed.

Row | SMILES | log p [2] | herbicidal effect CAPBP [1] [%] | herbicidal effect STEME [3] [%] | herbicidal effect AMARE [5] [%] | other results
1 | O=c1[nH]c2ccc(Nc3ncc(Br)c(NC4CCC4)n3)cc2o1 [Compound 5] | 1.59[b] | 70 | 70 |  | 
2 | O=C1CCCN1c1cccc(Nc2ncc(Cl)c(NC3CCC3)n2)c1 [Compound 48] |  | 70 |  | 70 | log p [6]: 1.71[a];; log p (physchem): 2.74[c]
3 | O=C1COCCN1c1ccc(Nc2ncc(Br)c(NC3CCC3)n2)cc1 [Compound 50] | 1.53[b] |  | 80 | 70 | 
4 | CC(=O)Nc1cccc(Nc2ncc(Br)c(NC3CCC3)n2)c1 [Compound 96] | 1.54[b] | 90 | 70 | 70 | 
5 | CN(C)C(=O)c1ccc(Nc2ncc(Br)c(NC3CCC3)n2)cc1 [Compound 100] | 1.73[b] | 70 | 70 | 70 | 
6 | CC(=O)Nc1ccc(Nc2ncc(Cl)c(NC3CCC3)n2)cc1Cl [Compound 118] | 1.78[b] |  |  |  | efficacy (nematicidal activity by formation of galls) (Meloidogyne incognita): > 80%
7 | CC(=O)Nc1cccc(Nc2ncc(Cl)c(NC3CCC3)n2)c1 [Compound 123] | 1.51[b] | 80 | 70 | 100 | 
8 | CSc1cccc(Nc2ncc(Cl)c(NC3CCC3)n2)c1 [Compound 128] | 2.46[b] | 80 | 90 | 90 | 
9 | CSc1ccc(Nc2ncc(Cl)c(NC3CCC3)n2)cc1 [Compound 129] | 2.33[b] | 70 | 70 |  | 
10 | N#CCC(=O)c1ccc(Nc2ncc(Br)c(NC3CCC3)n2)cc1 [Compound 149] | 2.57[b] | 90 | 70 | 90 | 
11 | CN(C)C(=O)c1cccc(Nc2ncc(Br)c(NC3CCC3)n2)c1 [Compound 155] | 1.68[b] | 80 | 80 | 70 | 
12 | O=C(O)c1ccc(Nc2ncc(Br)c(NC3CCC3)n2)cc1 [Compound 156] | 1.94[b] |  |  |  | herbicidal effect CAPBP [7]: 70%; herbicidal effect STEME [8]: 70%
13 | CN(C)C(=O)c1ccc(Nc2ncc(C(F)(F)F)c(NC3CCC3)n2)cc1 [Compound 221] | 2.48[b] |  |  |  | efficacy (kill in %) [9]: ≥ 80%

Second part, led by results:

Row | log p [2] | SMILES | herbicidal effect CAPBP [1] [%] | herbicidal effect STEME [3] [%] | herbicidal effect AMARE [5] [%] | other results
14 | 2.04[b] | COc1cc(Nc2ncc(Br)c(NC3CCC3)n2)cc(OC)c1OC [Compound 38] |  |  | 90 | herbicidal effect ABUTH [4]: 70%
15 | 2.92[b] | CSc1cccc(Nc2ncc(Br)c(NC3CCC3)n2)c1 [Compound 44] | 80 | 70 |  | 
16 | 1.84[b] | O=C1CCCN1c1cccc(Nc2ncc(Br)c(NC3CCC3)n2)c1 [Compound 45] | 70 | 80 | 70 | 
17 | 1.79[b] | CN1CCN(c2cccc(Nc3ncc(Br)c(NC4CCC4)n3)c2)C1=O [Compound 59] | 70 | 80 |  | herbicidal effect ABUTH [4]: 80%
18 | 1.73[b] | CS(=O)(=O)Nc1cccc(Nc2ncc(Br)c(NC3CCC3)n2)c1 [Compound 87] |  | 70 | 80 | 
19 | 1.66[b] | CS(=O)(=O)Cc1cccc(Nc2ncc(Br)c(NC3CCC3)n2)c1 [Compound 88] | 70 | 80 |  | herbicidal effect CAPBP [7]: 90%; herbicidal effect STEME [8]: 80%
20 | 1.64[b] | CC(=O)N(C)c1ccc(Nc2ncc(Cl)c(NC3CCC3)n2)cc1 [Compound 120] | 70 |  | 90 | 
21 | 1.38[b] | CC(=O)Nc1cc(Nc2ncc(Cl)c(NC3CCC3)n2)ccc1C [Compound 142] |  |  | 80 | herbicidal effect CAPBP [7]: 80%; herbicidal effect STEME [8]: 70%; herbicidal effect ABUTH [4]: 70%
22 | 2.3[b] | CCOC(=O)Cc1ccc(Nc2ncc(Br)c(NC3CCC3)n2)cc1 [Compound 148] | 80 | 70 | 90 | herbicidal effect ABUTH [4]: 70%
